BigSolDB 2.1

CS(=O)(=O)c1ccc([C@@H](O)[C@@H](CO)NC(=O)C(Cl)Cl)cc1
solubility (mole fraction)
Conditions	278.15 K	283.15 K	288.15 K	293.15 K	298.15 K	303.15 K	308.15 K	313.15 K	318.15 K
in 1,4-dioxane	–	–	0.000384	0.000508	0.000728	0.000973	0.0013	0.00173	0.00227
in 2-butanone	0.000139	0.000197	0.000286	0.000379	0.00051	0.000704	0.000952	0.00125	0.00166
in DMF	0.0092	0.012	0.0156	0.0199	0.025	0.0308	0.0379	0.0457	0.0553
in acetone	0.000283	0.000425	0.000585	0.00084	0.00112	0.00149	0.00202	0.00268	0.00352
in acetonitrile	7.96e-05	0.000119	0.000177	0.000259	0.000363	0.000502	0.000716	0.00098	0.00134
in ethanol	0.000102	0.000148	0.000219	0.000309	–	0.000625	0.000837	0.00115	0.00157
in ethyl acetate	6.24e-05	9.09e-05	0.000124	0.000171	0.000246	0.000348	0.000471	0.000643	0.000861
in isopropanol	3.46e-05	5.2e-05	7.13e-05	0.000104	0.000146	0.000201	0.000269	0.000364	0.000493
in methanol	0.00023	0.000345	0.000518	0.000715	0.000993	0.00141	0.00189	0.00259	0.00341
in n-butanol	9.54e-06	1.38e-05	2.08e-05	3.1e-05	4.46e-05	6.39e-05	8.42e-05	0.000123	0.000165
in n-propanol	5.11e-05	7.34e-05	0.000103	0.000147	0.000199	0.000285	0.00038	0.000509	0.000687
in toluene	3.96e-06	6.03e-06	8.89e-06	1.28e-05	1.89e-05	2.7e-05	3.81e-05	5.53e-05	7.6e-05
in water	2.5e-05	3.42e-05	4.96e-05	7.3e-05	9.52e-05	0.000132	0.000187	0.000253	0.000339
